Measurements: patent US11377442B2, “Small molecule agonists and antagonists of NR2F6 activity” (ZANDER THERAPEUTICS, INC., priority 2016, dated 2022)
Where two headings read alike, the source gives them in different places. Blank lines part the entries; values can stand above or below the molecule they belong to.

Biological target: T1, NR2F6 (Homo sapiens, UniProt P10588)
T1 construct: expressed in transfected cells; also transient transfection
T1 sequence (P10588 1-404): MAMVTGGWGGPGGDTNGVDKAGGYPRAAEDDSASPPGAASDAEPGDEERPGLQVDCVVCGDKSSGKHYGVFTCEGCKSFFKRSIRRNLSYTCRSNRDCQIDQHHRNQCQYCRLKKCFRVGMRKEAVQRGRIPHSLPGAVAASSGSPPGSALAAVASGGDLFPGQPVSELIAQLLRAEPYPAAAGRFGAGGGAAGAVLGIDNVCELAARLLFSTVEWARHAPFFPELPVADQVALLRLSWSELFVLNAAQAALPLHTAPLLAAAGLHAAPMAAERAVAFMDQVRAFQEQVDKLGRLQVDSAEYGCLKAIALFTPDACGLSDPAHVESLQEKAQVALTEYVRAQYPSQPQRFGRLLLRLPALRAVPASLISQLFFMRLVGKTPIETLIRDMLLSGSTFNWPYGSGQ
Experiment: NR2F6 agonist screening, Firefly signal cmpd/DMSO
Format: cell-based
Parameters: Firefly NR2F6 full length, cmpd/DMSO (mean) / Firefly F4, cmpd/DMSO (mean): unit of the concentration uncertain
Conditions: for Firefly/Renilla (NR2F6 stable, clone F4): ratio Firefly/Renilla; for Firefly, NR2F6 stable (clone F4)/pGL4: ratio of Firefly in NR2F6 stable clone F4 to pGL4

[1] = C11 analogs follow set (Tables 2-10), repeat 1
[2] = C11 analogs follow set (Tables 2-10), repeat 2
[3] = Concentration 2 (unit uncertain)
[4] = Concentration 10 (unit uncertain)
[5] = Concentration 40 (unit uncertain)

Firefly, cmpd/DMSO repeat 1 [1]: 10.0 | Firefly, cmpd/DMSO repeat 2 [2]: 16.6
SMILES: O=c1oc2ccc([N+](=O)[O-])cc2cc1S(=O)(=O)c1ccc(Br)cc1 [Compound C138]

Firefly, cmpd/DMSO repeat 1 [1]: 2.8 | Firefly, cmpd/DMSO repeat 2 [2]: 2.2
SMILES: Cc1ccc(S(=O)(=O)c2cc3cc(Br)ccc3oc2=O)cc1Cl [Compound C189]

Firefly, cmpd/DMSO repeat 1 [1]: 12.8 | Firefly, cmpd/DMSO repeat 2 [2]: 12.0
SMILES: CC(C)c1ccc(S(=O)(=O)c2cc3cc(Cl)ccc3oc2=O)cc1 [Compound C140]

Firefly, cmpd/DMSO repeat 1 [1]: 11.7 | Firefly, cmpd/DMSO repeat 2 [2]: 10.1 | Firefly/Renilla (NR2F6 stable, clone F4) (Table 12): 2.0 | Firefly, NR2F6 stable (clone F4)/pGL4 (Table 12): 4.1 | Firefly, cmpd/DMSO repeat 1 (Table 12, repeat 1): 11.7 | Firefly, cmpd/DMSO repeat 2 (Table 12, repeat 2): 10.1
SMILES: Cc1ccc(S(=O)(=O)c2cc3cc(C(=O)NCCc4ccccc4)ccc3oc2=O)cc1 [Compound C112]

Firefly, cmpd/DMSO repeat 1 [1]: 13.0 | Firefly, cmpd/DMSO repeat 2 [2]: 15.3 | Firefly/Renilla (NR2F6 stable, clone F4) (Table 12): 2.4 | Firefly, NR2F6 stable (clone F4)/pGL4 (Table 12): 5.9 | Firefly, cmpd/DMSO repeat 1 (Table 12, repeat 1): 13.0 | Firefly, cmpd/DMSO repeat 2 (Table 12, repeat 2): 15.3
SMILES: O=c1oc2ccccc2cc1S(=O)(=O)c1ccc(Br)cc1 [Compound C102]

Firefly, cmpd/DMSO repeat 1 [1]: 15.2 | Firefly, cmpd/DMSO repeat 2 [2]: 16.9
SMILES: COc1ccc(NC(=O)c2ccc3oc(=O)c(S(=O)(=O)c4ccc(C)cc4)cc3c2)cc1 [Compound C178]

Firefly, cmpd/DMSO repeat 1 [1]: 0.6 | Firefly, cmpd/DMSO repeat 2 [2]: 0.6
SMILES: COc1ccc2cc(S(=O)(=O)c3ccccc3F)c(=O)oc2c1 [Compound C280]

Firefly, cmpd/DMSO (mean): 1.5
SMILES: COc1cccc(-c2noc(Cn3ncc(C)c(C)c3=O)n2)c1 [Compound Z139]

Firefly, cmpd/DMSO repeat 1 [1]: 9.8 | Firefly, cmpd/DMSO repeat 2 [2]: 6.9
SMILES: Cc1cccc(NC(=O)c2ccc3oc(=O)c(S(=O)(=O)c4ccc(Cl)cc4)cc3c2)c1 [Compound C173]

Firefly, cmpd/DMSO repeat 1 [1]: 13.2 | Firefly, cmpd/DMSO repeat 2 [2]: 11.9 | Firefly/Renilla (NR2F6 stable, clone F4) (Table 13): 1.1 | Firefly, NR2F6 stable (clone F4)/pGL4 (Table 13): 5.7 | Firefly, cmpd/DMSO repeat 1 (Table 13, repeat 1): 13.2 | Firefly, cmpd/DMSO repeat 2 (Table 13, repeat 2): 11.9
SMILES: Cc1ccc(S(=O)(=O)c2cc3cc(C(=O)Nc4cc(C)cc(C)c4)ccc3oc2=O)cc1 [Compound C175]

Firefly, cmpd/DMSO repeat 1 [1]: 3.9 | Firefly, cmpd/DMSO repeat 2 [2]: 2.1
SMILES: CCN(CC)c1ccc2cc(S(=O)(=O)c3ccc(Cl)cc3)c(=O)oc2c1 [Compound C279]

Firefly, cmpd/DMSO repeat 1 (Table 11, repeat 1): 31.3 | Firefly, cmpd/DMSO repeat 2 (Table 11, repeat 2): 15.6 | Firefly/Renilla (NR2F6 stable, clone F4) (Table 12): 2.0 | Firefly, NR2F6 stable (clone F4)/pGL4 (Table 12): 15.3 | Firefly, cmpd/DMSO repeat 1 (Table 12, repeat 1): 31.3 | Firefly, cmpd/DMSO repeat 2 (Table 12, repeat 2): 15.6
SMILES: COc1ccc(S(=O)(=O)c2cc3cc(F)cc(F)c3oc2=O)cc1 [Compound C289]

Firefly, cmpd/DMSO repeat 1 [1]: 3.0 | Firefly, cmpd/DMSO repeat 2 [2]: 3.0
SMILES: COc1ccc2cc(S(=O)(=O)c3ccc(C(C)C)cc3)c(=O)oc2c1 [Compound C269]

Firefly F4, cmpd/DMSO (mean) [3]: 1.0 | Firefly NR2F6 full length, cmpd/DMSO (mean) [3]: 1.2 | Firefly F4, cmpd/DMSO (mean) [4]: 1.0 | Firefly NR2F6 full length, cmpd/DMSO (mean) [4]: 1.2 | Firefly F4, cmpd/DMSO (mean) [5]: 0.7 | Firefly NR2F6 full length, cmpd/DMSO (mean) [5]: 0.9
SMILES: COc1ccc(S(=O)(=O)NCc2nc3nc(C)cc(C)n3n2)cc1OC [Compound E8]

Firefly, cmpd/DMSO repeat 1 [1]: 1.3 | Firefly, cmpd/DMSO repeat 2 [2]: 1.0
SMILES: CC(C)(C)c1ccc(S(=O)(=O)c2cc3cc(F)ccc3oc2=O)cc1 [Compound C216]

Firefly, cmpd/DMSO repeat 1 [1]: 22.8 | Firefly, cmpd/DMSO repeat 2 [2]: 14.3 | Firefly/Renilla (NR2F6 stable, clone F4) (Table 13): 1.5 | Firefly, NR2F6 stable (clone F4)/pGL4 (Table 13): 8.2 | Firefly, cmpd/DMSO repeat 1 (Table 13, repeat 1): 22.8 | Firefly, cmpd/DMSO repeat 2 (Table 13, repeat 2): 14.3
SMILES: O=c1oc2ccc([N+](=O)[O-])cc2cc1S(=O)(=O)c1ccccc1 [Compound C210]

Firefly, cmpd/DMSO repeat 1 (Table 9, repeat 1): 1.1 | Firefly, cmpd/DMSO repeat 2 (Table 9, repeat 2): 1.0
SMILES: COc1cccc(S(=O)(=O)c2cc3cccc(OC)c3oc2=O)c1 [Compound C226]

Firefly, cmpd/DMSO repeat 1 [1]: 2.2 | Firefly, cmpd/DMSO repeat 2 [2]: 1.2
SMILES: COc1ccc2cc(S(=O)(=O)c3ccc(Cl)cc3)c(=O)oc2c1 [Compound C271]

Firefly, cmpd/DMSO (mean) (mean of repeats): 5.1 | Firefly, cmpd repeat 1 (raw signal, repeat 1): 310 | Firefly, cmpd repeat 2 (raw signal, repeat 2): 252 | Firefly, cmpd/DMSO repeat 1 (repeat 1): 5.6 | Firefly, cmpd/DMSO repeat 2 (repeat 2): 4.6
SMILES: Cc1cc(C)nc(Sc2nnc(-c3ccc(C)c(S(=O)(=O)N4CCOCC4)c3)c3ccccc23)n1 [Compound F1]

Firefly, cmpd/DMSO (mean): 1.1
SMILES: COc1ccccc1-c1noc(Cn2nccc(Cl)c2=O)n1 [Compound Z134]

Firefly, cmpd/DMSO repeat 1 [1]: 2.8 | Firefly, cmpd/DMSO repeat 2 [2]: 1.4
SMILES: CC(C)(C)c1ccc(S(=O)(=O)c2cc3ccccc3oc2=O)cc1 [Compound C103]

Firefly, cmpd/DMSO repeat 1 [1]: 6.1 | Firefly, cmpd/DMSO repeat 2 [2]: 5.3
SMILES: O=c1oc2ccc(Cl)cc2cc1S(=O)(=O)c1ccccc1 [Compound C201]

Firefly F4, cmpd/DMSO (mean) [3]: 1.0 | Firefly NR2F6 full length, cmpd/DMSO (mean) [3]: 1.3 | Firefly F4, cmpd/DMSO (mean) [4]: 1.3 | Firefly NR2F6 full length, cmpd/DMSO (mean) [4]: 1.2 | Firefly F4, cmpd/DMSO (mean) [5]: 1.3 | Firefly NR2F6 full length, cmpd/DMSO (mean) [5]: 0.9
SMILES: Cc1ccc(S(=O)(=O)N(Cc2nc3nc(C)c(S)c(C)n3n2)c2ccccc2)cc1 [Compound E57]

Firefly, cmpd/DMSO repeat 1 (Table 9, repeat 1): 7.6 | Firefly, cmpd/DMSO repeat 2 (Table 9, repeat 2): 5.1 | Firefly/Renilla (NR2F6 stable, clone F4) (Table 12): 2.4 | Firefly, NR2F6 stable (clone F4)/pGL4 (Table 12): 4.4 | Firefly, cmpd/DMSO repeat 1 (Table 12, repeat 1): 7.6 | Firefly, cmpd/DMSO repeat 2 (Table 12, repeat 2): 5.1
SMILES: CCOc1cccc2cc(S(=O)(=O)c3ccccc3F)c(=O)oc12 [Compound C254]

Firefly, cmpd/DMSO repeat 1 (Table 11, repeat 1): 6.0 | Firefly, cmpd/DMSO repeat 2 (Table 11, repeat 2): 7.8
SMILES: COc1ccc(S(=O)(=O)c2cc3cc(Br)cc(OC)c3oc2=O)cc1 [Compound C296]

Firefly, cmpd/DMSO repeat 1 [1]: 18.2 | Firefly, cmpd/DMSO repeat 2 [2]: 19.1 | Firefly/Renilla (NR2F6 stable, clone F4) (Table 12): 1.7 | Firefly, NR2F6 stable (clone F4)/pGL4 (Table 12): 9.5 | Firefly, cmpd/DMSO repeat 1 (Table 12, repeat 1): 18.2 | Firefly, cmpd/DMSO repeat 2 (Table 12, repeat 2): 19.1
SMILES: O=c1oc2ccc(F)cc2cc1S(=O)(=O)c1ccc(Cl)cc1 [Compound C218]

Firefly, cmpd/DMSO repeat 1 [1]: 10.4 | Firefly, cmpd/DMSO repeat 2 [2]: 13.5
SMILES: CCOc1ccccc1NC(=O)c1ccc2oc(=O)c(S(=O)(=O)c3ccc(F)cc3)cc2c1 [Compound C181]

Firefly, cmpd/DMSO repeat 1 [1]: 8.6 | Firefly, cmpd/DMSO repeat 2 [2]: 12.8
SMILES: O=c1oc2ccc(Cl)cc2cc1S(=O)(=O)c1cccc(Cl)c1 [Compound C191]

Firefly, cmpd/DMSO repeat 1 [1]: 2.6 | Firefly, cmpd/DMSO repeat 2 [2]: 2.9
SMILES: O=c1oc2ccc(Cl)cc2cc1S(=O)(=O)c1ccc(Cl)cc1 [Compound C147]

Firefly, cmpd/DMSO repeat 1 [1]: 0.8 | Firefly, cmpd/DMSO repeat 2 [2]: 0.9
SMILES: COc1ccc2oc(=O)c(S(=O)(=O)c3ccc(Br)cc3)cc2c1 [Compound C208]

Firefly, cmpd/DMSO repeat 1 [1]: 5.8 | Firefly, cmpd/DMSO repeat 2 [2]: 14.3
SMILES: Cc1cc(C)cc(NC(=O)c2ccc3oc(=O)c(S(=O)(=O)c4ccccc4)cc3c2)c1 [Compound C174]

Firefly, cmpd/DMSO repeat 1 [1]: 29.3 | Firefly, cmpd/DMSO repeat 2 [2]: 19.6 | Firefly/Renilla (NR2F6 stable, clone F4) (Table 12): 2.1 | Firefly, NR2F6 stable (clone F4)/pGL4 (Table 12): 8.2 | Firefly, cmpd/DMSO repeat 1 (Table 12, repeat 1): 29.3 | Firefly, cmpd/DMSO repeat 2 (Table 12, repeat 2): 19.6
SMILES: Cc1ccc(NC(=O)c2ccc3oc(=O)c(S(=O)(=O)c4ccccc4)cc3c2)c(C)c1 [Compound C164]

Firefly, cmpd/DMSO repeat 1 [1]: 3.1 | Firefly, cmpd/DMSO repeat 2 [2]: 4.4
SMILES: Cc1ccc(S(=O)(=O)c2cc3ccccc3oc2=O)cc1C [Compound C104]
